{"source": "patent US11293863B2", "about": "“Robust interferometer and methods of using same” (Vanderbilt University, priority 2015, dated 2022)", "key": {"[1]": {"test_system": "FAAH in small unilamellar vesicles; CXCR4 receptor; GABAB receptor in CHO cell membranes", "assay": "BSI label-free free-solution binding assays on membrane proteins (negative controls)", "conditions": "negative control compound, even the highest concentrations", "from_the_text": "Membrane-associated proteins and their interactions are of paramount interest in the design of clinical therapeutics, accounting for almost 70% of existing drug candidate targets (Krummel and Davis (2002) Current Opinion in Immunology 14: 66-74; Overington et al. (2006) Nature Reviews Drug Discovery 5: 993-996). To date, it has been difficult to perform direct binding assays on cellular membranes except by down-stream signal transduction or the use of isotope labeling methods. BSI facilitated label-free, free solution binding assays on proteoliposomes (Bracey et al. (2002) Science 298: 1793-1796; Jass et al. (2000) Biophysical Journal 79: 3153-3163) from full-length, functional membrane proteins, from both natural and recombinant sources (Kussrow et al. (2010) Chembiochem DOI: 10.1002/cbic.201000671). […]"}, "[2]": {"target": "lectin Concanavalin A (ConA) (Canavalia ensiformis, UniProt P02866)", "conditions": "non-binding sugar used as control, free-solution BSI with ConA; cited from earlier work"}}, "data": [{"compound": "CC(C)CCC[C@@H](C)[C@H]1CC[C@H]2[C@@H]3CC=C4C[C@@H](O)CC[C@]4(C)[C@H]3CC[C@]12C", "note": "[cholesterol]", "values": [{"measurement": "BSI signal", "setting": "[1]", "result": "Little or no BSI signal"}]}, {"compound": "C[C@H](N)C(=O)O", "note": "[L-alanine]", "values": [{"measurement": "BSI signal", "setting": "[1]", "result": "Little or no BSI signal"}]}, {"compound": "O=C[C@H](O)[C@@H](O)[C@@H](O)[C@H](O)CO", "note": "[galactose]", "values": [{"measurement": "BSI binding signal", "setting": "[2]", "result": "no binding signal"}]}]}
